Reference: patent publication US9951055B2, “Thiazole-based inhibitors of scavenger receptor BI” (THE BROAD INSTITUTE, INC., priority 2012, dated 2018)

Key:
[1] = biological target: T1, murine SR-BI (Mus musculus, UniProt Q61009); experiment: DiI-HDL uptake assay with extended washout; type: cell-based; details: after a 4-hour washout period
T1 construct: expressed in transfected cells; host or cells: ldlA[mSR-BI]; (CHO ldlA7 derivative lacking the LDL receptor)
T1 sequence (Q61009 1-509): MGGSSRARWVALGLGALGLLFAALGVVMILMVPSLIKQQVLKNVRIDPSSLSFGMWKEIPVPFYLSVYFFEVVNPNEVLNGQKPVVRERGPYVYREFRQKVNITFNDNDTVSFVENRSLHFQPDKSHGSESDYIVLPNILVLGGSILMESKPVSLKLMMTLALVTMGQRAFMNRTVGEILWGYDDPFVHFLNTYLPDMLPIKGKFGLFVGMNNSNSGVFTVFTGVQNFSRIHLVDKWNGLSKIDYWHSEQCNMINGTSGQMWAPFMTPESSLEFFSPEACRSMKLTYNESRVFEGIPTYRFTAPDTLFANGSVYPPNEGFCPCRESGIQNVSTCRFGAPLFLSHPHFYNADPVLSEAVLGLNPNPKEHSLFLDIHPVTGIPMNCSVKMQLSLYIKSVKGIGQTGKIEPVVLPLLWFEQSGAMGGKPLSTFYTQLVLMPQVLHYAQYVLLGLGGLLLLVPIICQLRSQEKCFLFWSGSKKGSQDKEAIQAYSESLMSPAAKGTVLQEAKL
Experimental: DiI-HDL Uptake Assay with Extended Washout (SA 5: AID No. 602154)
This is another modification of the primary assay where cells are pretreated with compound but no compound is present during a 4-hour washout period or the subsequent 3-hour DiI-HDL treatment period. […] Cells were treated with compound for 3 hours, then were washed four times with PBS, once with lipoprotein-free media (Ham's F12/0.5% fatty acid-free Bovine Serum Albumin [BSA]/25 mM HEPES pH 7.4), and then returned to the incubator with lipoprotein-free media for 4 hours. Media were then removed and cells were washed with PBS before fresh lipoprotein-free media (Ham's F12/0.5% fatty acid-free Bovine Serum Albumin [BSA]/25 mM HEPES pH 7.4) was added with […] DiI-HDL. Cells took up the DiI via SR-BI over 3 hours in the absence of compound. After significant uptake of the DiI, the cells became fluorescent. The level of fluorescence correlates with the amount of DiI uptake and can be measured with a standard plate reader. The uptake of lipid (represented by DiI) was inhibited by the compound BLT-1 or with an excess of HDL untreated with DiI.

[2] = biological target: T2, SR-BI (Mus musculus, UniProt Q61009); experiment: HDL binding assay (Alexa 488 HDL); type: cell-based; set-up: expressed in transfected cells; details: Alexa-488 labeled HDL particles
T2 sequence (Q61009 1-509): T1 sequence (Q61009 1-509)
Experimental: HDL binding was assessed using Alexa Fluor 488-labeled HDL particles. For this assay, the Alexa 488 dye was covalently bound to apolipoprotein components of the HDL particle via primary amines; thus, no transfer of the fluorophore to cell membranes occurs. In this manner, direct binding of the HDL particles to SR-BI can be measured. As a positive control, BLT-1, which is known to increase binding of HDL to SR-BI, was used at 1 μM (12). It is possible that a compound can reduce binding of HDL to the receptor, and this would lead to a decrease in signal. This assay is used to characterize the mechanism of action of a particular compound; therefore, any outcome in the assay is acceptable. Data were normalized against DMSO and the positive control (1 μM BLT-1) in Genedata Assay Analyzer.

[3] = biological target: T2, SR-BI; experiment: Cholesterol efflux assay; type: cell-based; set-up: expressed in transfected cells
Experimental: SR-BI also mediates bidirectional flux (e.g. efflux) of unesterified or ‘free’ cholesterol (FC) between cells and HDL or other acceptors. In vivo, the greatest SR-BI-mediated selective uptake occurs in the liver and steroidogenic organs. This assay is used to determine if the compounds alter the efflux of FC to HDL.
On Day 0, 50,000 cells per well were plated in 24-well plates. On the following day, the media was removed and [^3H]cholesterol in lipoprotein-deficient media was added. On Day 1, the medium was replaced with Ham's F12 medium supplemented with 10% bovine lipoprotein deficient serum with 1 μCi/ml [1,2-^3H]cholesterol (40-60 Ci/mmol). On Day 3, the cells were washed to remove serum and incubated in Ham's F12 plus 1% fatty acid-free BSA. On Day 4, the cells were washed and pretreated with compounds for 1 hour. Subsequently, the cells were incubated for an additional 2 hours with the same concentrations of small molecules and with unlabeled HDL (final HDL concentration of 100 μg protein/ml). The medium was collected to determine released cholesterol, and the cells were lysed. The amount of [^3H]cholesterol in the medium and cells was determined using liquid scintillation counting. Total cellular [^3H]cholesterol was calculated as the sum of the radioactivity in the efflux medium plus the radioactivity in the cells and was used to calculate the [^3H]cholesterol efflux (percent of total [^3H]cholesterol released into the medium).

[4] = Cell cytotoxicity assay (CellTiter-Glo); type: cell-based, Chinese hamster; details: Chinese hamster, ldlA[mSR-BI] cells; after 24 hours of treatment
Experimental: It is possible that a compound will cause cells to decrease HDL-mediated DiI uptake due to nonspecific consequences of cellular toxicity, representing a second class of false positive hits. The cells were treated with compounds for 3 hours or 24 hours, and then cell viability was measured using the CellTiter-Glo Assay (Promega), a luciferase-based reagent that measures cellular ATP levels. The compounds were tested at different concentrations to determine IC50 values. […] Compounds that were active in the primary assay but toxic below 30 μM at 24 hours (but nontoxic at 3 hours) were still considered. […] Data were normalized against DMSO and the positive control (1 μM BLT-1) in Genedata Assay Analyzer.
All available dry powder samples of the remaining, non-quenching compounds were procured from commercial sources and purities were determined. The compounds obtained were then retested in the primary assay and in the cytotoxicity assays. We wanted to rule out any compounds that were cytotoxic, especially in the 3-hour time span of the primary DiI-HDL uptake assay. Therefore, compounds were tested in ldlA[mSR-BI]cells for cytotoxicity at 3 hours and 24 hours using the CellTiter-Glo assay (Promega) that measures cellular ATP as a marker of cell viability. […] Compounds were screened for inhibition of endocytosis using labeled transferrin, which is known to bind the transferrin receptor, enter cells by clathrin-mediated endocytosis, and move to endosomes before being recycled to the cell surface. The BLT compounds have also been tested for potential interference with endocytosis and show no such activity.

[5] = Plasma protein binding; type: in vitro ADME; details: human plasma; read-out: plasma protein binding, bound (converted)

SMILES	IC50 [1] [nM]	binding of HDL to SR-BI [2]	reduction of efflux of free cholesterol from cells ([3]; during the course of the assay)	inhibition of efflux of cholesterol ([3]; listed as Probe 278)	inhibition of efflux of cholesterol ([3]; listed as compound of Formula (II))	EC50 at 24 h [4] [nM]	fraction unbound [5]
CCCCCCC1CCCC1=NNC(N)=S (stereo not shown) [BLT-1, reference compound]	0.6	–	–	–	–	–	–
COCC(=O)N1CCc2cc(-c3csc(NC(=O)c4cc(OC)cc(OC)c4)n3)ccc21 [Compound 137, 3,5-Dimethoxy-N-(4-(1-(2-methoxyacetyl)indolin-5-yl)thiazol-2-yl)benzamide]	–	increases binding of HDL to the receptor	up to 50%	Inhibits efflux of cholesterol	inhibit efflux of cholesterol	> 35000	0.065
